Measurements from ChEMBL document CHEMBL4392824, “Design, synthesis and bioevaluation of 3-oxo-6-aryl-2,3-dihydropyridazine-4-carbohydrazide derivatives as novel xanthine oxidase inhibitors” (Bioorg Med Chem, 2019).

Assays:
[1] = biological target: T1, Xanthine dehydrogenase/oxidase (Bos taurus, UniProt P80457); assay: Inhibition of bovine xanthine oxidase assessed as reduction in uric acid formation at 10 uM preincubated for 5 mins followed by xanthine addition and measured after 20 mins by spectrophotometry; conditions: cattle
T1 sequence (P80457 whole entry): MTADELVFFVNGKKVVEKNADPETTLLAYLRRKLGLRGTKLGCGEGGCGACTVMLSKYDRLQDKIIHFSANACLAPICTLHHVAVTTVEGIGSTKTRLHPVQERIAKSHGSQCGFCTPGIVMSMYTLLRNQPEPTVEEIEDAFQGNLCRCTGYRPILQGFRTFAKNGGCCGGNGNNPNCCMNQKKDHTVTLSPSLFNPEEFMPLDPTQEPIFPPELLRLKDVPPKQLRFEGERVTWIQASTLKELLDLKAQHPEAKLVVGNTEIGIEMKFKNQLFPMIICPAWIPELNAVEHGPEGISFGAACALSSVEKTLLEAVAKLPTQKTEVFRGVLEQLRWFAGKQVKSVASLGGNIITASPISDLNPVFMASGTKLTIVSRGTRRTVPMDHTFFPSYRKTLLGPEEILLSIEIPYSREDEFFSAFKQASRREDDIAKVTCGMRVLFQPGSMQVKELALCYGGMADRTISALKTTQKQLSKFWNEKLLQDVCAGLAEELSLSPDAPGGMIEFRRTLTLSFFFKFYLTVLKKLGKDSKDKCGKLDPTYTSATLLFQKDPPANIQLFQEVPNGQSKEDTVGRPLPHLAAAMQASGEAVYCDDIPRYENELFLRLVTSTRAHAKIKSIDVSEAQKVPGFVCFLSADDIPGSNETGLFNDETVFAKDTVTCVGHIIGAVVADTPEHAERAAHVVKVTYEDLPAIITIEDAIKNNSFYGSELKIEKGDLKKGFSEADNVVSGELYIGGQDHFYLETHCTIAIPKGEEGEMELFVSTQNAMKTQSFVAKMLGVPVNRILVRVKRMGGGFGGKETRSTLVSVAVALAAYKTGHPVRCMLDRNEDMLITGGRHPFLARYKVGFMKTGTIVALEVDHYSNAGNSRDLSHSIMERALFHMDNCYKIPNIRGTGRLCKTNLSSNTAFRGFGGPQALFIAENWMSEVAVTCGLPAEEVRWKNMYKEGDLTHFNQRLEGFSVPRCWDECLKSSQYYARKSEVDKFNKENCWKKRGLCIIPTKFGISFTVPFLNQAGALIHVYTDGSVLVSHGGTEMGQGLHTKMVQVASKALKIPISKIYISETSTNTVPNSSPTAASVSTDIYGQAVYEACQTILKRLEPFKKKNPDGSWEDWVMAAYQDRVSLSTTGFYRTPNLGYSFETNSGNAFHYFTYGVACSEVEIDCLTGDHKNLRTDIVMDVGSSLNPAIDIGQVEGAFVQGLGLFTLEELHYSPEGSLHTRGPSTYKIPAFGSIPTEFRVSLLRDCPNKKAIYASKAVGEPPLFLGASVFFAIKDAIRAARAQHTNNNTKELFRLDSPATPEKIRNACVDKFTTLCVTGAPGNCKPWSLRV

[2] = biological target: T1, Xanthine dehydrogenase/oxidase; assay: Inhibition of bovine xanthine oxidase assessed as reduction in uric acid formation preincubated for 5 mins followed by xanthine addition and measured after 20 mins by spectrophotometry
[3] = biological target: T1, Xanthine dehydrogenase/oxidase; assay: Mixed type inhibition of bovine xanthine oxidase assessed as reduction in uric acid formation at 0.5 to 2 uM preincubated for 5 mins followed by xanthine addition and measured after 20 mins by spectrophotometry based Lineweaver-Burk plot analysis; conditions: cattle

SMILES | inhibition at 10 µM [1] [%] | IC50 [2] | IC50 ([2]; read-out: IC50) [µM] | inhibition (INH) [3]
CC(C)CCOc1ccc(-c2cc(C(=O)NN)c(=O)[nH]n2)cc1C#N |  |  | 4.5 | 
CC(C)COc1ccc(-c2cc(C(=O)NN)c(=O)[nH]n2)cc1[N+](=O)[O-] |  |  | 3.65 | 
CC(C)Oc1ccc(-c2cc(C(=O)NN)c(=O)[nH]n2)cc1[N+](=O)[O-] |  |  | 1.92 | 
CC(C)COc1ccc(-c2cc(C(=O)O)c(=O)[nH]n2)cc1C#N | < 50 | Not Active |  | 
CC(C)CCOc1ccc(-c2cc(C(=O)O)c(=O)[nH]n2)cc1C#N | < 50 | Not Active |  | 
CCCOc1ccc(-c2cc(C(=O)NN)c(=O)[nH]n2)cc1C#N |  |  | 3.1 | 
CCCCCOc1ccc(-c2cc(C(=O)NN)c(=O)[nH]n2)cc1C#N |  |  | 5.89 | 
CC(C)Oc1ccc(-c2cc(C(=O)O)c(=O)[nH]n2)cc1[N+](=O)[O-] | < 50 | Not Active |  | 
CC(C)COc1ccc(-c2cc(C(=O)NN)c(=O)[nH]n2)cc1C#N |  |  | 2.97 | 
CC(C)CCOc1ccc(-c2cc(C(=O)NN)c(=O)[nH]n2)cc1[N+](=O)[O-] |  |  | 6.02 | 

The remaining lines, values ahead:

inhibition at 10 µM [1] [%] | IC50 [2] | IC50 ([2]; read-out: IC50) [µM] | inhibition (INH) [3] | SMILES
< 50 | Not Active |  |  | NNC(=O)c1cc(-c2ccccc2)n[nH]c1=O
 |  | 2.54 |  | CCOc1ccc(-c2cc(C(=O)NN)c(=O)[nH]n2)cc1C#N
< 50 | Not Active |  |  | NNC(=O)c1cc(-c2cccc([N+](=O)[O-])c2)n[nH]c1=O
< 50 | Not Active |  |  | CC(C)COc1ccc(-c2cc(C(=O)NN)c(=O)[nH]n2)cc1
< 50 | Not Active |  |  | NNC(=O)c1cc(-c2ccc([N+](=O)[O-])cc2)n[nH]c1=O
< 50 | Not Active |  |  | CC(C)Oc1ccc(-c2cc(C(=O)NN)c(=O)[nH]n2)cc1
 |  | 1.03 | Active | CC(C)Oc1ccc(-c2cc(C(=O)NN)c(=O)[nH]n2)cc1C#N
 |  | 5.24 |  | CCCCOc1ccc(-c2cc(C(=O)NN)c(=O)[nH]n2)cc1C#N
